According to patent US7662832B2, “Pyrrolo[2,3-c]pyridine derivatives and processes for the preparation thereof” (priority 2004, dated 2010):
pIC50: −log10 of the molar value. Counter-ions that a name gives are not always drawn.

Target: Proton Pump (H^+/K^+-ATPase) (Sus scrofa, UniProt P19156)
Assay: Inhibitory effects on proton pump (H^+/K^+-ATPase) activity
Format: biochemical
Settings: hog gastric vesicles; K^+ stimulated H^+/K^+-ATPase activity; 30 minutes at 37° C.

Sequence of Proton Pump (H^+/K^+-ATPase) (P19156 2-1034 limits assumed): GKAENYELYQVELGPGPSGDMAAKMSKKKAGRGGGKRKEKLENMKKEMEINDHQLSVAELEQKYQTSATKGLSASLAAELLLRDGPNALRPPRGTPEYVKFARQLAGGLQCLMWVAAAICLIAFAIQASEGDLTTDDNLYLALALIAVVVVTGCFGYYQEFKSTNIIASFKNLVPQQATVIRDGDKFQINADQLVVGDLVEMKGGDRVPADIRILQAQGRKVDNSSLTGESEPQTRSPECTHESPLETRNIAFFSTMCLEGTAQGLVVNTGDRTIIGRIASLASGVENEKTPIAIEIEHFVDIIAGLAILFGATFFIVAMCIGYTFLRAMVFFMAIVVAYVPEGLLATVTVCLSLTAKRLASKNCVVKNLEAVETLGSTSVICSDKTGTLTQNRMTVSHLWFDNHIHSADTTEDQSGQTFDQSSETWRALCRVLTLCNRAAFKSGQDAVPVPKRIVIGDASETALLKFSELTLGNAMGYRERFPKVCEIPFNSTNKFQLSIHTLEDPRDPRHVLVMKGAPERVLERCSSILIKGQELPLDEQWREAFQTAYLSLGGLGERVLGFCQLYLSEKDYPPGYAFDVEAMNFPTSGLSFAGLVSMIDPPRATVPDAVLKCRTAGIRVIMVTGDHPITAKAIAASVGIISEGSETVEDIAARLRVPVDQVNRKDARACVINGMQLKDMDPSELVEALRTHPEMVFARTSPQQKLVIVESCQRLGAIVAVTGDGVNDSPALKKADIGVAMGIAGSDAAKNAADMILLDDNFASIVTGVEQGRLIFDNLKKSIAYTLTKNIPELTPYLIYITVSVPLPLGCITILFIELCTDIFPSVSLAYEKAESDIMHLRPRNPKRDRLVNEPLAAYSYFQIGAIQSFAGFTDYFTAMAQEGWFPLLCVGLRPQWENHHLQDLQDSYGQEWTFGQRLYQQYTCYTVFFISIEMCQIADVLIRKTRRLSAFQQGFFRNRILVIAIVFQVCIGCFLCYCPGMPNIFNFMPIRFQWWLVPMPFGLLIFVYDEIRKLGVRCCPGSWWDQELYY
Sequence of Proton Pump (H^+/K^+-ATPase) (P18434 whole entry partner): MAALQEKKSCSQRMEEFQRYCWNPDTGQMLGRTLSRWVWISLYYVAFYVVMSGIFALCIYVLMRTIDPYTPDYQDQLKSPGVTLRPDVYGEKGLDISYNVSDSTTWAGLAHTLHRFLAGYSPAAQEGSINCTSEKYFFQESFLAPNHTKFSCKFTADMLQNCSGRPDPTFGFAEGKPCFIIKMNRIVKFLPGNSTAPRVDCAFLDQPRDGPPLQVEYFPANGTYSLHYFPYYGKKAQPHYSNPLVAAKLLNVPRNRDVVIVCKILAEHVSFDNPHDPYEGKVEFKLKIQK

Row | SMILES | pIC50
1 | CCCn1c(C)c(C)c2ccnc(NCc3ccc(F)cc3)c21 [Example 228, 7-(4-fluorobenzylamino)-2,3-dimethyl-1-propyl-1H-pyrrolo[2,3-c]pyridine hydrochloride] | 6.88
2 | COc1cccc(Cn2c(C)c(C)c3cc(C(=O)N4CCOCC4)nc(N4CCc5ccccc5C4)c32)c1 [Example 780, [7-(3,4-dihydro-1H-isoquinolin-2-yl)-1-(3-methoxybenzyl)-2,3-dimethyl-1H-pyrrolo[2,3-c]pyridin-5-yl]-(morpholin-4-yl)-methanone hydrochloride] | 6.90
3 | Cc1c(C)n(CC2CC2)c2c(NCc3ccc(Cl)cc3)nccc12 [Example 227, 7-(4-chlorobenzylamino)-1-cyclopropylmethyl-2,3-dimethyl-1H-pyrrolo[2,3-c]pyridine hydrochloride] | 7.14
4 | Cc1cccc(Cn2c(C)c(C)c3ccnc(N4CCc5ccccc5C4)c32)c1 [Example 515, 1-(3-methylbenzyl)-7-(1,2,3,4-tetrahydroisoquinolin-2-yl)-2,3-dimethyl-1H-pyrrolo[2,3-c]pyridine hydrochloride] | 6.70
5 | Cc1[nH]c2c(N3CCc4ccccc4C3C)nccc2c1C (stereo not shown) [Example 560, 2-(2,3-dimethyl-1H-pyrrolo[2,3-c]pyridin-7-yl)-1-methyl-1,2,3,4-tetrahydroisoquinoline sodium] | 7.77
6 | CSc1ccc(-c2nccc3c(C)c(C)n(Cc4ccccc4F)c23)cc1 [Example 275, 2,3-dimethyl-1-(2-fluorobenzyl)-7-(4-methylsulfanylphenyl)-1H-pyrrolo[2,3-c]pyridine hydrochloride] | 6.44
7 | Cc1c(C)n(Cc2ccccc2)c2c(N3CCc4ccccc4C3)nc(C(=O)N3CCSCC3)cc12 [Example 789, [1-benzyl-7-(3,4-dihydro-1H-isoquinolin-2-yl)-2,3-dimethyl-1H-pyrrolo[2,3-c]pyridin-5-yl]-(thiomorpholin-1-yl)-methanone hydrochloride] | 7.19
8 | Cc1c(C)n(Cc2cccc(Cl)c2)c2c(N3CCc4ccccc4C3)nc(N)cc12 [Example 845, 1-(3-chlorobenzyl)-7-(3,4-dihydro-1H-isoquinolin-2-yl)-2,3-dimethyl-1H-pyrrolo[2,3-c]pyridin-5-amine hydrochloride] | 6.54
9 | Cc1c(C)n(Cc2cccc(F)c2)c2c(N3CCc4ccccc4C3)nc(C(C)O)cc12 (stereo not shown) [Example 860, 1-[7-(3,4-dihydro-1H-isoquinolin-2-yl)-1-(3-fluorobenzyl)-2,3-dimethyl-1H-pyrrolo[2,3-c]pyridin-5-yl]-ethanol hydrochloride] | 6.50
10 | C=CCn1c(C)c(C)c2cc(C(=O)N3CCN(C)CC3)nc(N3CCc4ccccc4C3)c21 [Example 785, [1-allyl-7-(3,4-dihydro-1H-isoquinolin-2-yl)-2,3-dimethyl-1H-pyrrolo[2,3-c]pyridin-5-yl]-(4-methylpiperazin-1-yl)-methanone hydrochloride] | 9.15
11 | C#CCn1c(C)c(C)c2ccnc(-c3ccc(C=C)cc3)c21 [Example 249, 2,3-dimethyl-1-(prop-2-ynyl)-7-(4-vinylphenyl)-1H-pyrrolo[2,3-c]pyridine hydrochloride] | 7.30
12 | C=CCn1c(C)c(C)c2ccnc(N3CCc4ccccc4C3)c21 [Example 490, 1-allyl-7-(1,2,3,4-tetrahydroisoquinolin-2-yl)-2,3-dimethyl-1H-pyrrolo[2,3-c]pyridine nitrate] | 8.52
13 | Cc1c(CO)c2ccnc(N3CCc4ccccc4C3)c2n1Cc1cccc(F)c1 [Example 617, [7-(3,4-dihydro-1H-isoquinolin-2-yl)-1-(3-fluorobenzyl)-2-methyl-1H-pyrrolo[2,3-c]pyridin-3-yl]-methanol hydrochloride] | 7.19

More lines, in order of rising pIC50, values ahead:

Row | pIC50 | SMILES
14 | 5.49 | CCCn1c(C)c(C)c2cc(C#N)nc(N3CCc4ccccc4C3)c21 [Example 697, 7-(3,4-dihydro-1H-isoquinolin-2-yl)-2,3-dimethyl-1-propyl-1H-pyrrolo[2,3-c]pyridin-5-carbonitrile]
15 | 6.43 | Cc1cc2ccnc(N3CCc4ccccc4C3)c2n1Cc1cccc(F)c1 [Example 613, 2-[1-(3-fluorobenzyl)-2-methyl-1H-pyrrolo[2,3-c]pyridin-7-yl]-1,2,3,4-tetrahydroisoquinoline hydrochloride]
16 | 6.72 | CC(C)=CCn1c(C)c(C)c2ccnc(N3CCc4ccc(F)cc4C3C)c21 (stereo not shown) [Example 545, 2-[2,3-dimethyl-1-(3-methylbut-2-enyl)-1H-pyrrolo[2,3-c]pyridin-7-yl]-7-fluoro-1-methyl-1,2,3,4-tetrahydroisoquinoline hydrochloride]
17 | 6.79 | Cc1c(C)n(Cc2cccc(Cl)c2)c2c(N3CCc4ccccc4C3)nc(C(=O)N3CCCCC3)cc12 [Example 799, [1-(3-chlorobenzyl)-7-(3,4-dihydro-1H-isoquinolin-2-yl)-2,3-dimethyl-1H-pyrrolo[2,3-c]pyridin-5-yl]-(piperidin-1-yl)-methanone hydrochloride]
18 | 6.89 | Cc1c(C)n(CCc2ccc(S(C)(=O)=O)cc2)c2c(N3CCc4ccccc4C3)nccc12 [Example 512, 1-[2-(4-methylsulfonylphenyl)ethyl]-7-(1,2,3,4-tetrahydroisoquinolin-2-yl)-2,3-dimethyl-1H-pyrrolo[2,3-c]pyridine hydrochloride]
19 | 7.00 | C=CCn1c(C)c(C)c2ccnc(-c3ccc(C=C)cc3)c21 [Example 245, 1-allyl-2,3-dimethyl-7-(4-vinylphenyl)-1H-pyrrolo[2,3-c]pyridine hydrochloride]
20 | 7.10 | C#CCn1c(C)c(C)c2cc(C(=O)N3CCCCC3)nc(N3CCc4ccccc4C3)c21 [Example 802, [7-(3,4-dihydro-1H-isoquinolin-2-yl)-2,3-dimethyl-1-(prop-2-ynyl)-1H-pyrrolo[2,3-c]pyridin-5-yl]-(piperidin-1-yl)-methanone hydrochloride]
21 | 7.25 | COc1cccc(Cn2c(C)c(C)c3ccnc(N4CCc5ccccc5C4)c32)c1 [Example 510, 1-(3-methoxybenzyl)-7-(1,2,3,4-tetrahydroisoquinolin-2-yl)-2,3-dimethyl-1H-pyrrolo[2,3-c]pyridine hydrochloride]
22 | 7.28 | Cc1c(C)n(Cc2ccccc2)c2c(N3CCc4ccccc4C3)nc(CO)cc12 [Example 850, [1-benzyl-7-(3,4-dihydro-1H-isoquinolin-2-yl)-2,3-dimethyl-1H-pyrrolo[2,3-c]pyridin-5-yl]-methanol hydrochloride]
23 | 7.44 | Cc1[nH]c2c(N3CCc4ccccc4C3C)nccc2c1C (stereo not shown) [Example 552, 2-(2,3-dimethyl-1H-pyrrolo[2,3-c]pyridin-7-yl)-1-methyl-1,2,3,4-tetrahydroisoquinoline hydrochloride]
24 | 8.05 | Cc1c(C)n(CC2CC2)c2c(N3CCc4ccccc4C3)nc(C(=O)N3CCNCC3)cc12 [Example 816, [1-cyclopropylmethyl-7-(3,4-dihydro-1H-isoquinolin-2-yl)-2,3-dimethyl-1H-pyrrolo[2,3-c]pyridin-5-yl]-(piperazin-1-yl)-methanone hydrochloride]
25 | 8.80 | C=CCn1c(C)c(C)c2cc(C(=O)N3CCOCC3)nc(N3CCc4ccccc4C3)c21 [Example 777, [1-allyl-7-(3,4-dihydro-1H-isoquinolin-2-yl)-2,3-dimethyl-1H-pyrrolo[2,3-c]pyridin-5-yl]-(morpholin-4-yl)-methanone hydrochloride]
